Source: paper PMC10819771 (Pharmaceuticals, 2023)

What was measured:
FK-RAST = experiment: FRET-melting, FK-RAST; assay type: binding; conditions: DNA 0.2 μM, 10 mM KCl, 90 mM LiCl, pH 7.2
Method: (§1) FRET-melting experiments were conducted on a Stratagene MX3005P (Thermo Fisher Scientific, Illkirch-Graffenstaden, France) real-time PCR equipment in 96-well plates on the DNA sequences reported in Table 4. Experiments were performed in 10 mM lithium cacodylate buffer (pH 7.2) and either 10 mM KCl and 90 mM LiCl (FK-RAST, FBCL-2T, F21T, and FdxT) or 1 mM KCl and 99 mM LiCl (Fc-MYCT) concentrations, depending on the Tm of the G4s alone. The DNA concentration was 0.2 µM. […] Data are presented as an average of three independent measurements, each conducted in duplicate conditions (λexc = 492 nm, λem = 516 nm, T interval = 25–95 °C, ramp: 25 °C for 5 min, then 1 °C/min, measurements every 1 °C, 8× magnification of the fluorescence signal).

FdxT = experiment: FRET-melting, duplex control FdxT; assay type: binding; conditions: DNA 0.2 μM, 10 mM KCl, 90 mM LiCl, pH 7.2, hairpin duplex
Method: as §1

Fc-MYCT = experiment: FRET-melting, Fc-MYCT; assay type: binding; conditions: DNA 0.2 μM, K+ conditions, pH 7.2
Method: as §1

SiHa = experiment: MTT antiproliferative assay, SiHa; assay type: cell-based, human; conditions: for IC50: Homo sapiens, SiHa, MTT, 72 h, cervical cancer cells, read-out: IC50 Values (μM) ± SEM SiHa; for Selectivity Index HEK293/SiHa: IC50 HEK293 / IC50 SiHa
Method: (§2) The growth-inhibitory effects of the compounds were determined by MTT (3-(4,5-dimethylthiazol-2-yl)-2,5-diphenyltetrazolium bromide) assay on selected cell lines, including HeLa and SiHa (cervical cancers), MDA-MB-231 and MCF-7 (breast cancers), and A2780 ovarian cancer cells. All cell lines were purchased from the European Collection of Cell Cultures (Salisbury, UK) except SiHa, which was obtained from the American Tissue Culture Collection (Manassas, VA, USA). The cells were kept in minimum essential medium supplemented with 10% fetal bovine serum, 1% non-essential amino acids, and 1% penicillin-streptomycin-amphotericin-B at 37 °C in a humidified atmosphere containing 5% CO2. Media and supplements were obtained from Lonza Group Ltd., (Basel, Switzerland). Cancer cells were seeded onto 96-well plates (5000 cells/well), after an overnight incubation the test compounds were added in six concentrations (0.1, 0.3, 1.0, 3.0, 10.0, 30.0 µM) and incubated for 72 h under cell-culture condition. After the incubation, 20 μL of 5 mg/mL MTT solution was added to each well and incubated for a further 4 h. The medium was removed, and the precipitated formazan crystals were dissolved in DMSO for 30 min under shaking at 37 °C. The absorbance was measured at 545 nm with a microplate reader. Untreated cells were included as controls. Calculations were performed by means of the GraphPad Prism 5.01 software (GraphPad Software Inc., San Diego, CA, USA). At least two independent determinations were performed with 5 parallel wells for each condition.

K562 = experiment: MTS cell proliferation assay, K562; assay type: cell-based, human; conditions: for IC50: Homo sapiens, K562, 72 h, MTS, 3-day incubation, leukemia cells, read-out: IC50 Values (μM) ± SEM K562; for Selectivity Index HEK293/K562: IC50 HEK293 / IC50 K562
Method: The human leukemic cell line K562 was grown in RPMI 1640 medium (Life Technology-Invitrogen by Thermo Fisher Scientific, Saint-Aubin, France) supplemented with 10% fetal calf serum (FCS), antibiotics (100 U/mL penicillin, 100 µg/mL streptomycin), and L-glutamine, (Eurobio, Les Ulis, France) at 37 °C, 5% CO2 in air. The MTS cell proliferation assay (Promega, Charbonnières-les-Bains, France) is a colorimetric assay system, which measures the transformation of a tetrazolium component (MTS) into formazan produced by the mitochondria of viable cells. Cells were washed twice in PBS (Phosphate Buffer Saline) and plated in quadruplicate into microtiter-plate wells in 100 μL culture media with or without our various compounds at increasing concentrations (0, 1, 5, 10, 20, and 50 μM) for 1, 2, and 3 days. After 3 h of incubation at 37 °C with 20 μL MTS/well, the plates were read using an ELISA microplate reader (Thermo, Electrocorporation, Waltham, MA, USA) at 490 nm. The amount of color produced was directly proportional to the number of viable cells. The results are expressed as the concentrations inhibiting cell growth by 50% after a 3-day incubation period. The 50% cytotoxic concentrations (CC50) were determined by linear regression analysis, expressed in μM ± SD (Microsoft Excel).

HeLa = experiment: MTT antiproliferative assay, HeLa; assay type: cell-based, human; conditions: for IC50: Homo sapiens, HeLa, MTT, 72 h, cervical cancer cells, read-out: IC50 Values (μM) ± SEM HeLa; for Selectivity Index HEK293/HeLa: IC50 HEK293 / IC50 HeLa
Method: as §2

A2780 = experiment: MTT antiproliferative assay, A2780; assay type: cell-based, human; conditions: for IC50: Homo sapiens, A2780, MTT, 72 h, ovarian cancer cells, read-out: IC50 Values (μM) ± SEM A2780; for Selectivity Index HEK293/A2780: IC50 HEK293 / IC50 A2780
Method: as §2

FBCL-2T = experiment: FRET-melting, FBCL-2T; assay type: binding; conditions: DNA 0.2 μM, 10 mM KCl, 90 mM LiCl, pH 7.2
Method: as §1

MDA-MB-231 = experiment: MTT antiproliferative assay, MDA-MB-231; assay type: cell-based, human; conditions: for IC50: Homo sapiens, MDA-MB-231, 72 h, MTT, 72 h, breast cancer cells, read-out: IC50 Values (μM) ± SEM MDA-MB-231; for Selectivity Index HEK293/MDA-MB-231: IC50 HEK293 / IC50 MDA-MB-231
Method: as §2

MCF-7 = experiment: MTT antiproliferative assay, MCF-7; assay type: cell-based, human; conditions: for IC50: Homo sapiens, MCF7, 72 h, MTT, 72 h, breast cancer cells, read-out: IC50 Values (μM) ± SEM MCF-7; for Selectivity Index HEK293/MCF-7: IC50 HEK293 / IC50 MCF-7
Method: as §2

[1] = tested on: human telomeric sequence F21T; experiment: FRET-melting, F21T; assay type: binding; conditions: DNA 0.2 μM, 10 mM KCl, 90 mM LiCl, pH 7.2
Method: as §1

HEK293 = experiment: MTT proliferation test on normal cells, HEK293; assay type: cell-based; conditions: Homo sapiens, normal epithelial cells, cytotoxicity, read-out: IC50 Values (μM) ± SEM HEK293
Method: The MTT proliferation test on the epithelial cell line HEK293 was performed as pre-viously described. The 50% inhibiting concentrations (IC50) were determined by linear regression analysis.

telomerase = experiment: Telomerase activity (TRAP assay) in MCF-7 cell lysates; assay type: biochemical, human; conditions: MCF-7 cell lysate; for telomerase activity compared to control: 5 µM compound
Method: Telomerase activity was assessed using the TRAP assay kit (TRAPeze® RT telomerase detection kit, Chemicon, Millipore Sigma S7700, Merck KGaA, Darmstadt, Germany) according to manufacturer’s instructions with some modifications. Briefly, […] in CHAPS lysis buffer and proteins were extracted. Protein extracts and various concentrations of compounds (0 to 5 µM) were used to extend a synthetic telomeric DNA using an enzymatic reaction (30 °C during 20 min), followed by a quantification of telomeric DNA using a telomeric PCR amplification: 95 °C for 3 min, 2 cycles of 95 °C for 20 s, and 49 °C for 20 s, followed by 30 cycles 95 °C for 20 s and 60 °C for 20 s with signal acquisition) in a Stratagene Mx3005P system (Agilent, Les Ulis, France) using specific telomeric PCR quantitative primers. Each sample was measured in technical duplicate with control DNA. For each drug and each dilution, we used biological triplicate of cell lysates.

[2] = tested on: FdxT (DNA, hairpin, hexaethylene glycol linker between 10 and 11) TATAGCTATATATAGCTATA; experiment: FRET melting; conditions: 10 mM K+, 90 mM Li+, 10 mM lithium cacodylate pH 7.2, 0.2 µM DNA
[3] = tested on: F21T (DNA, G4) GGGTTAGGGTTAGGGTTAGGG; experiment: FRET melting; conditions: 10 mM K+, 90 mM Li+; 10 mM lithium cacodylate pH 7.2; 0.2 µM DNA, 0.5 µM compound

| Compound | ΔT1/2 (°C) FK-RAST (FK-RAST; ligand 2 μM) [°C] | ΔT1/2 (°C) FdxT (FdxT; ligand 2 μM) [°C] | ΔT1/2 (°C) Fc-MYCT (Fc-MYCT; ligand 2 μM) [°C] | IC50 (SiHa) [µM] | Selectivity Index HEK293/SiHa (SiHa) | IC50 (K562) [µM] | Selectivity Index HEK293/K562 (K562) | IC50 (HeLa) [µM] | Selectivity Index HEK293/HeLa (HeLa) | IC50 (A2780) [µM] | Selectivity Index HEK293/A2780 (A2780) | ΔT1/2 (°C) FBCL-2T (FBCL-2T; ligand 2 μM) [°C] | IC50 (MDA-MB-231) [µM] | Selectivity Index HEK293/MDA-MB-231 (MDA-MB-231) | IC50 (MCF-7) [µM] | Selectivity Index HEK293/MCF-7 (MCF-7) | ΔT1/2 (°C) F21T ([1]; ligand 2 μM) [°C] | IC50 (HEK293) [µM] | telomerase activity compared to control (telomerase) | also measured |
| --- | --- | --- | --- | --- | --- | --- | --- | --- | --- | --- | --- | --- | --- | --- | --- | --- | --- | --- | --- | --- |
| CN1CCN(CCCCNCc2ccc(-c3nc(-c4ccc(CNCCCCN5CCN(C)CC5)cc4)c4ccc(-c5ccccc5)cc4n3)cc2)CC1 [Compound 12j, 2,4-bis{4-[(4-(4-methylpiperazin-1-yl)butyl)aminomethyl]phenyl}-7-phenylquinazoline] | 18.7 ± 1.6 | 1.5 ± 0.4 | 14.1 ± 0.3 | 0.33 ± 0.08 | 14.85 | 8 ± 0.2 | 0.61 | 1.48 ± 0.8 | 3.31 | 1.44 ± 0.1 | 3.40 | 9.8 ± 1.0 | 1.1 ± 0.15 | 4.45 | 0.58 ± 0.25 | 8.45 | 14.5 ± 1.2 | 4.9 ± 0.15 | – | – |
| CN(C)CCCNCc1ccc(-c2nc(-c3ccc(CNCCCN(C)C)cc3)c3ccc(-c4ccccc4)cc3n2)cc1 [Compound 12f, 2,4-bis{4-[(3-dimethylaminopropyl)aminomethyl]phenyl}-7-phenylquinazoline] | 20.1 ± 0.3 | 2.4 ± 0.1 | 9.1 ± 1.4 | 0.75 ± 0.1 | >40.0 | 14 ± 0.3 | >2.14 | 1.51 ± 0.09 | >19.9 | 0.79 ± 0.19 | >38.0 | 12.6 ± 0.6 | 0.55 ± 0.01 | >54.5 | 0.58 ± 0.08 | >51.7 | – | > 30 | reduced drastically | – |
| CN1CCN(CCCNCc2ccc(-c3nc(-c4ccc(CNCCCN5CCN(C)CC5)cc4)c4ccc(-c5ccccc5)cc4n3)cc2)CC1 [Compound 12i] | 20.2 ± 0.5 | 1.9 ± 0.1 | 12.5 ± 0.7 | 0.92 ± 0.24 | >32.6 | 23 ± 0.5 | >1.30 | 1.15 ± 0.36 | >26.1 | 1.14 ± 0.16 | >26.3 | 14.8 ± 0.7 | 0.52 ± 0.02 | >57.7 | 0.67 ± 0.31 | >44.8 | 18.6 ± 0.2 | > 30 | reduced drastically | concentration from which MCF-7 telomerase activity is decreased (telomerase; 0 to 5 µM tested): 5 µM |
| CN1CCN(CCCNCc2ccc(-c3cc(-c4ccc(CNCCCN5CCN(C)CC5)cc4)c4cc(-c5ccccc5)ccc4n3)cc2)CC1 | – | – | – | – | – | – | – | – | – | – | – | – | – | – | – | – | – | – | – | ΔT1/2 ([2]; 2 µM compound): 0.1 ± 0.2 °C |
| CN(C)CCCCNCc1ccc(-c2nc(-c3ccc(CNCCCCN(C)C)cc3)c3ccc(-c4ccccc4)cc3n2)cc1 [Compound 12g, 2,4-bis{4-[(4-dimethylaminobutyl)aminomethyl]phenyl}-7-phenylquinazoline] | 24.3 ± 1.1 | 3.2 ± 0.3 | 14.7 ± 0.8 | 0.52 ± 0.22 | 7.65 | 12 ± 0.3 | 0.33 | 0.95 ± 0.51 | 4.19 | 1.74 ± 0.89 | 2.29 | 17.5 ± 0.6 | 0.67 ± 0.35 | 5.94 | 0.63 ± 0.35 | 6.32 | 19.2 ± 1.0 | 3.98 ± 0.12 | – | – |
| C[n+]1cc(NC(=O)c2ccc3ccc4ccc(C(=O)Nc5cc6ccccc6[n+](C)c5)nc4c3n2)cc2ccccc21 [PhenDC3, reference compound] | – | – | – | – | – | – | – | – | – | – | – | – | – | – | – | – | – | – | – | ΔT1/2 (°C) FK-RAST (FK-RAST; ligand 0.5 μM): 16.9 ± 0.4 °C; ΔT1/2 [3]: 21.2 ± 0.5 °C; ΔT1/2 (°C) FdxT (FdxT; ligand 0.5 μM): −0.6 ± 0.1 °C; ΔT1/2 (°C) Fc-MYCT (Fc-MYCT; ligand 0.5 μM): 11.5 ± 0.3 °C; ΔT1/2 ([2]; 0.5 µM compound): -0.6 ± 0.1 °C; ΔT1/2 (°C) FBCL-2T (FBCL-2T; ligand 0.5 μM): 13.1 ± 0.1 °C; ΔT1/2 (°C) F21T ([1]; ligand 0.5 μM): 21.2 ± 0.5 °C |
